{
  "source": "ChEMBL document CHEMBL5360597",
  "about": "“Medicinal Chemistry Insights into the Development of Small-Molecule Kelch-Like ECH-Associated Protein 1-Nuclear Factor Erythroid 2-Related Factor 2 (Keap1-Nrf2) Protein-Protein Interaction Inhibitors” (J Med Chem, 2023)",
  "biological_target": "Keap1/Nrf2 (Homo sapiens, UniProt Q14145)",
  "sequence (Q16236 whole entry, the tested form may be a part)": "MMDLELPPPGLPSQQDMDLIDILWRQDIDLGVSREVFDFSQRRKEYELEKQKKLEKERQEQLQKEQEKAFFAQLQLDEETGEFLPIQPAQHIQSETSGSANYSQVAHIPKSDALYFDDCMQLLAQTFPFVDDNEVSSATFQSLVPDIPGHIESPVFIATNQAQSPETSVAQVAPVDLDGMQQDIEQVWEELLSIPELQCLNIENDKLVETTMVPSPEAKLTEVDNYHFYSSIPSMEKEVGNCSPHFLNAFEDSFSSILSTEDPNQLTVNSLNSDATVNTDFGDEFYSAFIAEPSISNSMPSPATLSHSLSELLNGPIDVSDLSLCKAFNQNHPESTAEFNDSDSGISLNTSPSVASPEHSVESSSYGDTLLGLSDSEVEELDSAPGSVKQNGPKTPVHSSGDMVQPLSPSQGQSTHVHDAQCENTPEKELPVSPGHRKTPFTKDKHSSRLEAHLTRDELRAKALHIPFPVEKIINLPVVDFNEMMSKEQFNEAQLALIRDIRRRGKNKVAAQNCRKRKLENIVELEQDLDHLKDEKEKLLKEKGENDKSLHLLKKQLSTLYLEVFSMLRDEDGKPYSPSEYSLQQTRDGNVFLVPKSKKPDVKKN",
  "sequence (Q14145 whole entry, the tested form may be a part)": "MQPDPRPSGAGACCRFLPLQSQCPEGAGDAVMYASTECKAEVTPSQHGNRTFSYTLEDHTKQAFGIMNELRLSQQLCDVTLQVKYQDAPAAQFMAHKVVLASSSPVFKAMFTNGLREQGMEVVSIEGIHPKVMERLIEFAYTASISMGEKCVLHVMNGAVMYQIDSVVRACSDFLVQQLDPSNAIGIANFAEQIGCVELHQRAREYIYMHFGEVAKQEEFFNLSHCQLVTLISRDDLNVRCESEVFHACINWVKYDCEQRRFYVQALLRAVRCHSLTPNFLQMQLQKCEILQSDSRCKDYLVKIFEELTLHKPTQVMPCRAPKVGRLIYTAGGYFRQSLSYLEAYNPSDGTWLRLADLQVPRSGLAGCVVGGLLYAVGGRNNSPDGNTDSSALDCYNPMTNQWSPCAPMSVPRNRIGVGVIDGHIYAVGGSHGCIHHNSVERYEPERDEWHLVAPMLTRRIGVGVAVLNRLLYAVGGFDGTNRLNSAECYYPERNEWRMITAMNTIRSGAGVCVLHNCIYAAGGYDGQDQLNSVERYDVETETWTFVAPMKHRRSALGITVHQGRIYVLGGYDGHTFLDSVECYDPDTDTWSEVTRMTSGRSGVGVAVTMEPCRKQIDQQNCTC",
  "assay": "Inhibition of Keap1 Kelch domain (unknown origin)/FITC-labelled-9mer Nrf2 (unknown origin) protein-protein interaction incubated for 30 mins by fluorescence polarisation assay",
  "data": [
    {"smiles": "COc1ccc(S(=O)(=O)Nc2ccc(NS(=O)(=O)c3cccnc3)cc2)cc1", "values": [
      {"measurement": "IC50", "result": 31.5, "unit": "µM"}
    ]}
  ]
}
